Source: patent US8822414B2, “Heterocyclic compounds suitable for the treatment of dyslipidemia” (Cadila Healthcare Limited, priority 2010, dated 2014)

Target: pro-protein convertase of the subtype nine binding to recombinant LDLR-AB domain (Homo sapiens, UniProt Q8NBP7)
Assay: in vitro quantitative solid phase binding assay (ELISA) of the subtype nine pro-protein convertase to immobilized LDLR
Details: for inhibition at 1 µM: Concentration 1 μM; for inhibition at 10 µM: Concentration 10 μM; for inhibition at 100 µM: Concentration 100 μM; for inhibition at 5 µM: Concentration 5 μM
Experimental: The in vitro binding assay described hereinafter is a quantitative solid phase binding assay for determining the efficacy of the compounds. Plates were pre-coated with a recombinant LDLR-AB domain, which binds to the gene pro-protein convertase of the subtype nine. Test compound at different concentrations was added to the subtype gene and added to LDLR immobilized on the wells. The amount of bound gene is measured by binding it with biotinylated anti-His-tag monoclonal antibody, followed by binding with horseradish peroxidase conjugated streptavidin substrate. The color was quantified by ELISA reader at […] which reflects the relative amount of “the gene” that binds to LDLR in presence and absence of the inhibitor. EC50 values were calculated by nonlinear regression analysis using graph pad prism software. Each concentration point represents values in duplicates.

Sequence of pro-protein convertase of the subtype nine binding to recombinant LDLR-AB domain (Q8NBP7 153-692): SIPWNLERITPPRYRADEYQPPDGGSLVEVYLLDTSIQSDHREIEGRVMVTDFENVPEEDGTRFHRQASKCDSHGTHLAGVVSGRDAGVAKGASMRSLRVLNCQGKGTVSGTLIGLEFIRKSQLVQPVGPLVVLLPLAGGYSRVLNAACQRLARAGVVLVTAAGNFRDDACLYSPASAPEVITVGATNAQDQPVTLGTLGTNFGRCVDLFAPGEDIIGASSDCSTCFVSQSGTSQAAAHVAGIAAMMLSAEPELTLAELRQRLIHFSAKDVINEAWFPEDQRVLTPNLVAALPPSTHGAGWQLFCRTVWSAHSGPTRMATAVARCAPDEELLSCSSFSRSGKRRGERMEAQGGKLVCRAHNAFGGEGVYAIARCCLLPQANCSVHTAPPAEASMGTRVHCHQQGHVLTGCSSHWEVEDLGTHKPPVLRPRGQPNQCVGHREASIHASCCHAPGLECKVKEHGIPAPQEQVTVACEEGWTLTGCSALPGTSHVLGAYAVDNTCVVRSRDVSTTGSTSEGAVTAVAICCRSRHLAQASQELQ
Sequence of pro-protein convertase of the subtype nine binding to recombinant LDLR-AB domain (Q8NBP7 31-152 partner limits assumed): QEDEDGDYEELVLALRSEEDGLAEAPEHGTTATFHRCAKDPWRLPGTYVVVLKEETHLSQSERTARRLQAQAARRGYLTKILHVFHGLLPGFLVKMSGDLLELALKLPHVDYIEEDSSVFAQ

SMILES | inhibition at 1 µM | inhibition at 10 µM | inhibition at 100 µM | inhibition at 5 µM
CC(=NOCc1ccc(C(F)(F)F)cc1)c1ccc(NCC(=O)NCC2CCOCC2)nc1 [Example 4, N-((tetrahydro-2H-pyran-4-yl)methyl)-2-((5-(1-(((4-(trifluoromethyl)benzyl)oxy)imino)ethyl)pyridin-2-yl)amino)acetamide] | 34% | 39% | 51% | –
CCC(=NOCc1ccc(C(F)(F)F)cc1)c1ccc(NCC(=O)NCC2CCOCC2)cc1 [Example 5, N-((tetrahydro-2H-pyran-4-yl)methyl)-2-((4-(1-(((4-(trifluoromethyl)benzyl)oxy)imino)propyl)phenyl)amino)acetamide] | 34% | 40% | 50% | –
Cc1cc(C(Cc2ccccc2)=NOCc2ccc(C(F)(F)F)cc2)ccc1OCC(=O)NCC1CCOCC1 [Example 10, 2-(2-methyl-4-(2-phenyl-1-(((4-(trifluoromethyl)benzyl)oxy)imino)ethyl)phenoxy)-N-((tetrahydro-2H-pyran-4-yl)methyl)acetamide] | 3% | 35% | 51% | 18%
O=C(COc1ccc(C(Cc2ccccc2)=NOCc2ccc(C(F)(F)F)cc2)cc1)NCC1CCOCC1 [Example 11, 2-(4-(2-phenyl-1-(((4-(trifluoromethyl)benzyl)oxy)imino)ethyl)phenoxy)-N-((tetrahydro-2H-pyran-4-yl)methyl)acetamide] | 20% | 49% | 61% | 23%
O=C(COc1ccc(C(Cc2ccccc2)=NOCc2cccc(C(F)(F)F)c2)cc1)NCC1CCOCC1 [Example 12, 2-(4-(2-phenyl-1-(((3-(trifluoromethyl)benzyl)oxy)imino)ethyl)phenoxy)-N-((tetrahydro-2H-pyran-4-yl)methyl)acetamide] | 19% | 55% | 79% | –
O=C(COc1ccc(C(Cc2ccncc2)=NOCc2ccc(C(F)(F)F)cc2)cc1)NCC1CCOCC1 [Example 13, 2-(4-(2-(pyridin-4-yl)-1-(((4-(trifluoromethyl)benzyl)oxy)imino)ethyl)phenoxy)-N-((tetrahydro-2H-pyran-4-yl)methyl)acetamide] | 22% | 32% | 48% | –

Now from value to compound:

inhibition at 1 µM | inhibition at 10 µM | inhibition at 100 µM | inhibition at 5 µM | SMILES
15% | 31% | 41% | – | O=C(COc1ccc(C(CN2CCOCC2)=NOCc2ccc(C(F)(F)F)cc2)cc1)NCC1CCOCC1 [Example 14, 2-(4-(2-morpholino-1-(((4-(trifluoromethyl)benzyl)oxy)imino)ethyl)phenoxy)-N-((tetrahydro-2H-pyran-4-yl)methyl)acetamide]
25% | 37% | 39% | – | O=C(COc1ccc(C(CN2CCSCC2)=NOCc2ccc(C(F)(F)F)cc2)cc1)NCC1CCOCC1 [Example 15, N-((tetrahydro-2H-pyran-4-yl)methyl)-2-(4-(2-thiomorpholino-1-(((4-(trifluoromethyl)benzyl)oxy)imino)ethyl)phenoxy)acetamide]
10% | 35% | 61% | 21% | Cc1cc(C(Cc2ccsc2)=NOCc2ccc(C(F)(F)F)cc2)ccc1OCC(=O)NCC1CCOCC1 [Example 16, 2-(2-methyl-4-(2-(thiophen-3-yl)-1-(((4-(trifluoromethyl)benzyl)oxy)imino)ethyl)phenoxy)-N-((tetrahydro-2H-pyran-4-yl)methyl)acetamide]
13% | 19% | 44% | – | O=C(COc1ccc(C=NOCc2ccc(C(F)(F)F)cc2)cc1)NCC1CCOCC1 [Example 17, N-((tetrahydro-2H-pyran-4-yl)methyl)-2-(4-((((4-(trifluoromethyl)benzyl)oxy)imino)methyl)phenoxy)acetamide]
